In BindingDB's records for PubMed 32853683 (Peking Union Medical College, 2020):

How the values were obtained:
[1] = Inhibition of caspase-like activity of human 20S proteasome beta 1
[2] = Inhibition of trypsin-like activity of human 20S proteasome beta 2

Row | IC50 [1] [µM] | IC50 [2] [µM] | Structure (SMILES)
1 | > 50 | > 50 | CCCc1ccc(OCC(=O)N(Cc2nc(-c3cccs3)no2)C(C)C)cc1
2 | > 50 | > 50 | CCCc1ccc(OCC(=O)N(Cc2nc(-c3cccnc3)no2)C(C)C)cc1
3 | > 50 | > 50 | CCCc1ccc(OCC(=O)N(Cc2cccc(-c3cccnc3)c2)C(C)C)cc1
4 | > 50 | > 50 | CCCc1ccc(OCC(=O)N(Cc2nc(-c3ccco3)no2)C(C)C)cc1
